Counter-ions that a name gives are not always drawn. Bounds are passed on as bounds.

One experiment deals with T1, human JAK2 (Homo sapiens, UniProt O60674).
T1 construct: JAK2 (a.a. 828-1132); His tag (N); made in house; host or cells: insect cells (baculovirus)
Nature of the experiment: In Vitro JAK Kinase Assay (HTRF, phosphorylation of a biotinylated peptide), JAK2. The format is biochemical. The settings on record: assay of Example A. Put shortly:
(§1)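 HTRF detection (SA-APC plus Eu-labeled anti-phosphotyrosine Py20, 40 min after EDTA stop) quantified biotinylated-peptide phosphorylation. Kinase reactions with human JAK1 or JAK2 catalytic domains lasted 1 h at room temperature.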
(TR-FRET usually uses a lanthanide donor and a delayed reading to cut background.)

The target of a further experiment is T2, human JAK1 (Homo sapiens, UniProt P23458).
T2 construct: human JAK1 (a.a. 837-1142); His tag (N); made in house; host or cells: insect cells (baculovirus)
Nature of the experiment: In Vitro JAK Kinase Assay (HTRF, phosphorylation of a biotinylated peptide), JAK1. The format is biochemical. The settings on record: catalytic domain a.a. 837-1142, assay of Example A. Put shortly: as §1

T1 sequence (O60674 828-1132): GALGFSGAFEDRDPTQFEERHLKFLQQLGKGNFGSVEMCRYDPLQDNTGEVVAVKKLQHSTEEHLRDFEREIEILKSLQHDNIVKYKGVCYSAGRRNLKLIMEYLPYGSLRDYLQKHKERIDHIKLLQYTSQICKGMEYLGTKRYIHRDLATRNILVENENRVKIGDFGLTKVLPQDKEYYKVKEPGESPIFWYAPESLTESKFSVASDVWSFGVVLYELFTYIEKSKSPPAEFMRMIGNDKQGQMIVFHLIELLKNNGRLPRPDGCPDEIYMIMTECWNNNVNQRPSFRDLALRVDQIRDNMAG
T2 sequence (P23458 849-1154): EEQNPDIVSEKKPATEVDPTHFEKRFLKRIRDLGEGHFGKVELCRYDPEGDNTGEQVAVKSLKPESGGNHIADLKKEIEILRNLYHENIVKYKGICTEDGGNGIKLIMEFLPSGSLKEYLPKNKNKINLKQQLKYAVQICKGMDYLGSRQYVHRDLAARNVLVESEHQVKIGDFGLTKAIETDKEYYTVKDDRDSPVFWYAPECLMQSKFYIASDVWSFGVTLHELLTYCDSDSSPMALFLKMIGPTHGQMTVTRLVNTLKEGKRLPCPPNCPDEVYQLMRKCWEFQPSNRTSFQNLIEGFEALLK

`N#CCC1(n2cc(-c3ncnc4[nH]ccc34)cn2)CN([C@H]2CC[C@@H](Oc3cc(CN4CC[C@H](F)C4)nc(C(F)(F)F)n3)CC2)C1` [Example 31, {1-(cis-4-{[6-{[(3S)-3-fluoropyrrolidin-1-yl]methyl}-2-(trifluoromethyl)pyrimidin-4-yl]oxy}cyclohexyl)-3-[4-(7H-pyrrolo[2,3-d]pyrimidin-4-yl)-1H-pyrazol-1-yl]azetidin-3-yl}acetonitrile tris(trifluoroacetate)]: the “JAK2/JAK1 IC50 ratio” value at human JAK2 (Table 4) is recorded as “≧10”. Further, the IC50 at human JAK1 (Table 4) was under 10 nM.
On to `CC(C)(O)c1cc(O[C@H]2CC[C@@H](N3CC(CC#N)(n4cc(-c5ncnc6[nH]ccc56)cn4)C3)CC2)nc(C(F)(F)F)c1` [Example 69, {1-(cis-4-{[4-(1-hydroxy-1-methylethyl)-6-(trifluoromethyl)pyridin-2-yl]oxy}cyclohexyl)-3-[4-(7H-pyrrolo[2,3-d]pyrimidin-4-yl)-1H-pyrazol-1-yl]azetidin-3-yl}acetonitrile bis(trifluoroacetate)], for which, at human JAK2 (Table 5), the “JAK2/JAK1 IC50 ratio” value is “≧10”. The compound also returned an IC50 at human JAK1 (Table 5) of under 10 nM.
Consider `CC(O)c1cc(OC2CCC(N3CC(CC#N)(n4cc(-c5ncnc6[nH]ccc56)cn4)C3)CC2)nc(C(F)(F)F)n1` (single isomer, unassigned) [Example 58a, {1-(cis-4-{[6-(1-hydroxyethyl)-2-(trifluoromethyl)pyrimidin-4-yl]oxy}cyclohexyl)-3-[4-(7H-pyrrolo[2,3-d]pyrimidin-4-yl)-1H-pyrazol-1-yl]azetidin-3-yl}acetonitrile tris(trifluoroacetate) (salt)], for which the “JAK2/JAK1 IC50 ratio” value on human JAK2 (Table 4) is listed as “≧10”. Moreover, the IC50 against human JAK1 (Table 4) is under 10 nM.
On the same counts, the results for `CC(O)(CO)c1cc(OC2CCC(N3CC(CC#N)(n4cc(-c5ncnc6[nH]ccc56)cn4)C3)CC2)nc(C(F)(F)F)n1` (single isomer, unassigned) [Example 57, {1-(cis-4-{[6-(1,2-dihydroxy-1-methylethyl)-2-(trifluoromethyl)pyrimidin-4-yl]oxy}cyclohexyl)-3-[4-(7H-pyrrolo[2,3-d]pyrimidin-4-yl)-1H-pyrazol-1-yl]azetidin-3-yl}acetonitrile tris(trifluoroacetate) (salt)] are “≧10” and under 10 nM.
For `C[C@H](CO)NCc1cc(O[C@H]2CC[C@@H](N3CC(CC#N)(n4cc(-c5ncnc6[nH]ccc56)cn4)C3)CC2)nc(C(F)(F)F)n1` [Example 17, {1-(cis-4-{[6-({[(1R)-2-hydroxy-1-methylethyl]amino}methyl)-2-(trifluoromethyl)pyrimidin-4-yl]oxy}cyclohexyl)-3-[4-(7H-pyrrolo[2,3-d]pyrimidin-4-yl)-1H-pyrazol-1-yl]azetidin-3-yl}acetonitrile tris(trifluoroacetate) (salt)], the “JAK2/JAK1 IC50 ratio” value on human JAK2 (Table 4) is recorded as “≧10”. Moreover, on human JAK1 (Table 4), the IC50 is under 10 nM.
Turning to `N#CCC1(n2cc(-c3ncnc4[nH]ccc34)cn2)CN([C@H]2CC[C@@H](Oc3cc(CNCC(O)CO)nc(C(F)(F)F)n3)CC2)C1` (stereo partly drawn) [Example 33, {1-(cis-4-{[6-{[(2,3-dihydroxypropyl)amino]methyl}-2-(trifluoromethyl)pyrimidin-4-yl]oxy}cyclohexyl)-3-[4-(7H-pyrrolo[2,3-d]pyrimidin-4-yl)-1H-pyrazol-1-yl]azetidin-3-yl}acetonitrile tris(trifluoroacetate) (salt)], the “JAK2/JAK1 IC50 ratio” value at human JAK2 (Table 4) is listed as “≧10”. The compound further yielded an IC50 against human JAK1 (Table 4) of under 10 nM.
As for `N#CCC1(n2cc(-c3ncnc4[nH]ccc34)cn2)CN([C@H]2CC[C@@H](Oc3cc(OCCO)nc(C(F)(F)F)n3)CC2)C1` [Example 56, {1-(cis-4-{[6-(2-hydroxyethoxy)-2-(trifluoromethyl)pyrimidin-4-yl]oxy}cyclohexyl)-3-[4-(7H-pyrrolo[2,3-d]pyrimidin-4-yl)-1H-pyrazol-1-yl]azetidin-3-yl}acetonitrile bis(trifluoroacetate) (salt)], the “JAK2/JAK1 IC50 ratio” value at human JAK2 (Table 4) was “≧10”. On human JAK1 (Table 4), the IC50 is under 10 nM.
On the same counts, the results for `CCCCN(C)Cc1cc(O[C@H]2CC[C@@H](N3CC(CC#N)(n4cc(-c5ncnc6[nH]ccc56)cn4)C3)CC2)nc(C(F)(F)F)n1.O=C(O)C(F)(F)F.O=C(O)C(F)(F)F.O=C(O)C(F)(F)F` [Example 36, {1-(cis-4-{[6-{[butyl(methyl)amino]methyl}-2-(trifluoromethyl)pyrimidin-4-yl]oxy}cyclohexyl)-3-[4-(7H-pyrrolo[2,3-d]pyrimidin-4-yl)-1H-pyrazol-1-yl]azetidin-3-yl}acetonitrile tris(trifluoroacetate)] are “≧10” and under 10 nM.
`CC1(NCc2cc(O[C@H]3CC[C@@H](N4CC(CC#N)(n5cc(-c6ncnc7[nH]ccc67)cn5)C4)CC3)nc(C(F)(F)F)n2)CC1.O=C(O)C(F)(F)F.O=C(O)C(F)(F)F.O=C(O)C(F)(F)F` [Example 53, {1-(cis-4-{[6-{[(1-methylcyclopropyl)amino]methyl}-2-(trifluoromethyl)pyrimidin-4-yl]oxy}cyclohexyl)-3-[4-(7H-pyrrolo[2,3-d]pyrimidin-4-yl)-1H-pyrazol-1-yl]azetidin-3-yl}acetonitrile tris(trifluoroacetate)]: the “JAK2/JAK1 IC50 ratio” value at human JAK2 (Table 4) is reported as “≧10”. For the same compound, the IC50 against human JAK1 (Table 4) was under 10 nM.
With `N#CCC1(n2cc(-c3ncnc4[nH]ccc34)cn2)CN([C@H]2CC[C@@H](Oc3cc(CN4CCOCC4)cc(C(F)(F)F)n3)CC2)C1` [Example 92, {1-(cis-4-{[4-(morpholin-4-ylmethyl)-6-(trifluoromethyl)pyridin-2-yl]oxy}cyclohexyl)-3-[4-(7H-pyrrolo[2,3-d]pyrimidin-4-yl)-1H-pyrazol-1-yl]azetidin-3-yl}acetonitrile tris(trifluoroacetate)], the “JAK2/JAK1 IC50 ratio” value on human JAK2 (Table 5) was “≧10”. On human JAK1 (Table 5), this compound came in with an IC50 of under 10 nM.
For `CCCCNCc1cc(O[C@H]2CC[C@@H](N3CC(CC#N)(n4cc(-c5ncnc6[nH]ccc56)cn4)C3)CC2)nc(C(F)(F)F)n1.O=C(O)C(F)(F)F.O=C(O)C(F)(F)F.O=C(O)C(F)(F)F` [Example 34, {1-(cis-4-{[6-[(butylamino)methyl]-2-(trifluoromethyl)pyrimidin-4-yl]oxy}cyclohexyl)-3-[4-(7H-pyrrolo[2,3-d]pyrimidin-4-yl)-1H-pyrazol-1-yl]azetidin-3-yl}acetonitrile tris(trifluoroacetate)], the “JAK2/JAK1 IC50 ratio” value at human JAK2 (Table 4) is reported as “≧10”. For the same compound, the IC50 at human JAK1 (Table 4) was under 10 nM.
Consider `CC(O)c1cc(OC2CCC(N3CC(CC#N)(n4cc(-c5ncnc6[nH]ccc56)cn4)C3)CC2)nc(C(F)(F)F)n1` (single isomer, unassigned) [Example 58, {1-(cis-4-{[6-(1-hydroxyethyl)-2-(trifluoromethyl)pyrimidin-4-yl]oxy}cyclohexyl)-3-[4-(7H-pyrrolo[2,3-d]pyrimidin-4-yl)-1H-pyrazol-1-yl]azetidin-3-yl}acetonitrile tris(trifluoroacetate) (salt)], for which the “JAK2/JAK1 IC50 ratio” value on human JAK2 (Table 4) was “≧10”. The compound also registered an IC50 against human JAK1 (Table 4) of under 10 nM.
For the compound `CC(C)NC(=O)c1cc(O[C@H]2CC[C@@H](N3CC(CC#N)(n4cc(-c5ncnc6[nH]ccc56)cn4)C3)CC2)nc(C(F)(F)F)c1` [Example 83, 2-[(cis-4-{3-(cyanomethyl)-3-[4-(7H-pyrrolo[2,3-d]pyrimidin-4-yl)-1H-pyrazol-1-yl]azetidin-1-yl}cyclohexyl)oxy]-N-isopropyl-6-(trifluoromethyl)isonicotinamide bis(trifluoroacetate)], the “JAK2/JAK1 IC50 ratio” value on human JAK2 (Table 5) is recorded as “≧10”. The IC50 at human JAK1 (Table 5) was under 10 nM.
Regarding `N#CCC1(n2cc(-c3ncnc4[nH]ccc34)cn2)CN([C@H]2CC[C@@H](Oc3cc(CNCC4CC4)nc(C(F)(F)F)n3)CC2)C1.O=C(O)C(F)(F)F.O=C(O)C(F)(F)F.O=C(O)C(F)(F)F` [Example 9, {1-(cis-4-{[6-{[(cyclopropylmethyl)amino]methyl}-2-(trifluoromethyl)pyrimidin-4-yl]oxy}cyclohexyl)-3-[4-(7H-pyrrolo[2,3-d]pyrimidin-4-yl)-1H-pyrazol-1-yl]azetidin-3-yl}acetonitrile tris(trifluoroacetate)], on human JAK2 (Table 4), the “JAK2/JAK1 IC50 ratio” value is reported as “≧10”. This compound displayed a half-inhibitory concentration (IC50) against human JAK1 (Table 4) of under 10 nM.
The matching figures for `N#CCC1(n2cc(-c3ncnc4[nH]ccc34)cn2)CN([C@H]2CC[C@@H](Oc3cc(CNCCF)nc(C(F)(F)F)n3)CC2)C1.O=C(O)C(F)(F)F.O=C(O)C(F)(F)F.O=C(O)C(F)(F)F` [Example 15, {1-(cis-4-{[6-{[(2-fluoroethyl)amino]methyl}-2-(trifluoromethyl)pyrimidin-4-yl]oxy}cyclohexyl)-3-[4-(7H-pyrrolo[2,3-d]pyrimidin-4-yl)-1H-pyrazol-1-yl]azetidin-3-yl}acetonitrile tris(trifluoroacetate)]: “≧10” and under 10 nM.
For the compound `N#CCC1(n2cc(-c3ncnc4[nH]ccc34)cn2)CN([C@H]2CC[C@@H](Oc3cc(CN4CCC[C@H]4CO)cc(C(F)(F)F)n3)CC2)C1.O=C(O)C(F)(F)F.O=C(O)C(F)(F)F.O=C(O)C(F)(F)F` (stereo in doubt) [Example 94, {1-(cis-4-{[4-{[(2S)-2-(hydroxymethyl)pyrrolidin-1-yl]methyl}-6-(trifluoromethyl)pyridin-2-yl]oxy}cyclohexyl)-3-[4-(7H-pyrrolo[2,3-d]pyrimidin-4-yl)-1H-pyrazol-1-yl]azetidin-3-yl}acetonitrile tris(trifluoroacetate)], the “JAK2/JAK1 IC50 ratio” value at human JAK2 (Table 5) is on record as “≧10”. Besides, the IC50 at human JAK1 (Table 5) was under 10 nM.
On the same counts, the results for `CN(CCO)C(=O)c1cc(O[C@H]2CC[C@@H](N3CC(CC#N)(n4cc(-c5ncnc6[nH]ccc56)cn4)C3)CC2)nc(C(F)(F)F)c1` [Example 82, 2-[(cis-4-{3-(cyanomethyl)-3-[4-(7H-pyrrolo[2,3-d]pyrimidin-4-yl)-1H-pyrazol-1-yl]azetidin-1-yl}cyclohexyl)oxy]-N-(2-hydroxyethyl)-N-methyl-6-(trifluoromethyl)isonicotinamide bis(trifluoroacetate)] are “≧10” and under 10 nM.

The IC50 is the concentration that gives 50% inhibition. The low end stands for greater potency in that assay, the high end for weaker potency in that assay.
